This test addresses T1, Human M4 (Homo sapiens, UniProt P08173).
T1 construct: expressed in transfected cells
T1 sequence (P08173 1-479): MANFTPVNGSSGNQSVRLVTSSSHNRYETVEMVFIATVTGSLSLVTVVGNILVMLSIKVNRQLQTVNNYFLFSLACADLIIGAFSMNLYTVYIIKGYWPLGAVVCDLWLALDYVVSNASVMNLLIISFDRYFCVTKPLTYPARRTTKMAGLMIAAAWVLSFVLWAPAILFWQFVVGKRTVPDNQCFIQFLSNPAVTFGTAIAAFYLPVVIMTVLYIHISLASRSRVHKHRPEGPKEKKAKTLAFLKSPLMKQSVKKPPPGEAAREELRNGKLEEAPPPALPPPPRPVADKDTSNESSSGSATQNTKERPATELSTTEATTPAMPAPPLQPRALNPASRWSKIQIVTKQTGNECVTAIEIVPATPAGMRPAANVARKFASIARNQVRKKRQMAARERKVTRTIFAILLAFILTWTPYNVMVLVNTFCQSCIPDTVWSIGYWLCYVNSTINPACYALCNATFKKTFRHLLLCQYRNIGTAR
Description: mAChR M4 cell-based functional assay (calcium flux, potentiation of EC20 acetylcholine response), hM4-Gqi5 CHO-K1 cells. The following applies: for Emax at 30 µM: % ACh maximum at 30 μM, human M4, read-out: Emax; for EC50: hM4-Gqi5 CHO-K1 cells, calcium flux, PAM of EC20 acetylcholine, read-out: Human M4 EC50. Put shortly:
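Positive allosteric modulation was scored as a concentration-dependent rise in the response to an EC20 dose of acetylcholine, added 144 s after the compound. Human M4-Gqi5 CHO-K1 cells carried Fluo-4 dye, and compounds ran as 11-point, 3-fold dilution series. EC50 and Emax came from four-parameter logistic fits of the FDSS fluorescence-ratio traces.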
(In general: Calcium assays in cells follow changes in intracellular calcium, usually with a dye or a luminescent sensor.)

In general, Emax refers to the size of the effect at its maximum, as opposed to the concentration needed. Broadly, the EC50 is the concentration giving half of the maximal effect.

`Cc1cc2nncn2nc1N1CCc2ncc(-c3ccn(C)n3)cc2C1` [Compound 114, 3-(1-methylpyrazol-3-yl)-6-(7-methyl-[1,2,4]triazolo[4,3-b]pyridazin-6-yl)-7,8-dihydro-5H-1,6-naphthyridine]: the EC50 was 707 nM. Besides, the Emax at 30 µM (CHO-K1) was found to be 88%.

Turning to `Cc1c(N2CCc3ncc(C(=O)NCc4ccc(C(C)(C)O)cc4)cc3C2)nn2cnnc2c1C` [Compound 115, 6-(7,8-dimethyl-[1,2,4]triazolo[4,3-b]pyridazin-6-yl)-N-[[4-(1-hydroxy-1-methyl-ethyl)phenyl]methyl]-7,8-dihydro-5H-1,6-naphthyridine-3-carboxamide], the EC50 stood at 4180 nM. In addition, the Emax at 30 µM (CHO-K1) turned out to be 73%.

Turning to `Cc1c(N2CCc3ncc(C(=O)NCC4CCCOC4)cc3C2)nn2cnnc2c1C` (centres unmarked) [Compound 116, 6-(7,8-dimethyl-[1,2,4]triazolo[4,3-b]pyridazin-6-yl)-N-(tetrahydropyran-3-ylmethyl)-7,8-dihydro-5H-1,6-naphthyridine-3-carboxamide], the Emax at 30 µM (CHO-K1) came to 75%.

Consider `Cc1c(N2CCc3ncc(C(=O)N4CC(F)C4)cc3C2)nn2cnnc2c1C` [Compound 117, [6-(7,8-dimethyl-[1,2,4]triazolo[4,3-b]pyridazin-6-yl)-7,8-dihydro-5H-1,6-naphthyridin-3-yl]-(3-fluoroazetidin-1-yl)methanone], for which the maximal effect (Emax) at 30 µM (CHO-K1) came to 67%.

For the molecule `Cc1c(N2CCc3ncc(C(=O)NCc4cncs4)cc3C2)nn2cnnc2c1C` [Compound 118, 6-(7,8-Dimethyl-[1,2,4]triazolo[4,3-b]pyridazin-6-yl)-N-(thiazol-5-ylmethyl)-7,8-dihydro-5H-1,6-naphthyridine-3-carboxamide], the EC50 is 707 nM. In addition, the Emax at 30 µM (CHO-K1) came to 99%.

As for `Cc1c(N2CCc3ncc(C(=O)N4CCC(O)CC4C)cc3C2)nn2cnnc2c1C` (centres unmarked) [Compound 119, [6-(7,8-dimethyl-[1,2,4]triazolo[4,3-b]pyridazin-6-yl)-7,8-dihydro-5H-1,6-naphthyridin-3-yl]-(4-hydroxy-2-methyl-1-piperidyl)methanone], the Emax at 30 µM (CHO-K1) is 73%.

In the case of `Cc1c(N2CCc3ncc(C(=O)NCC4COC4)cc3C2)nn2cnnc2c1C` [Compound 120, 6-(7,8-dimethyl-[1,2,4]triazolo[4,3-b]pyridazin-6-yl)-N-(oxetan-3-ylmethyl)-7,8-dihydro-5H-1,6-naphthyridine-3-carboxamide], the Emax at 30 µM (CHO-K1) worked out at 76%.

As for `Cc1c(N2CCc3ncc(C(=O)NCc4cccs4)cc3C2)nn2cnnc2c1C` [Compound 121, 6-(7,8-dimethyl-[1,2,4]triazolo[4,3-b]pyridazin-6-yl)-N-(2-thienylmethyl)-7,8-dihydro-5H-1,6-naphthyridine-3-carboxamide], the EC50 is 881 nM. The Emax at 30 µM (CHO-K1) was 100%.

Consider `Cc1c(N2CCc3ncc(C(=O)N4CCN(C5CC5)CC4)cc3C2)nn2cnnc2c1C` [Compound 122, (4-cyclopropylpiperazin-1-yl)-[6-(7,8-dimethyl-[1,2,4]triazolo[4,3-b]pyridazin-6-yl)-7,8-dihydro-5H-1,6-naphthyridin-3-yl]methanone], for which the Emax at 30 µM (CHO-K1) was found to be 51%.

Turning to `Cc1c(N2CCc3ncc(C(=O)N4CC(C)(C)C4)cc3C2)nn2cnnc2c1C` [Compound 123, (3,3-dimethylazetidin-1-yl)-[6-(7,8-dimethyl-[1,2,4]triazolo[4,3-b]pyridazin-6-yl)-7,8-dihydro-5H-1,6-naphthyridin-3-yl]methanone], the EC50 was 4770 nM. Also, under “CHO-K1”, the Emax at 30 µM is 77%.

With `Cc1c(N2CCc3ncc(C(=O)NC(C)c4nccs4)cc3C2)nn2cnnc2c1C` (centres unmarked) [Compound 124, 6-(7,8-dimethyl-[1,2,4]triazolo[4,3-b]pyridazin-6-yl)-N-(1-thiazol-2-ylethyl)-7,8-dihydro-5H-1,6-naphthyridine-3-carboxamide], the EC50 turned out to be 3690 nM. Besides, the Emax at 30 µM (CHO-K1) worked out at 63%.

As for `Cc1c(N2CCc3ncc(C(=O)NCCN4CCCC4)cc3C2)nn2cnnc2c1C` [Compound 125, 6-(7,8-dimethyl-[1,2,4]triazolo[4,3-b]pyridazin-6-yl)-N-(2-pyrrolidin-1-ylethyl)-7,8-dihydro-5H-1,6-naphthyridine-3-carboxamide], the concentration for a half-maximal effect (EC50) came to 7200 nM. Further, the Emax at 30 µM (CHO-K1) is 85%.

With `Cc1c(N2CCc3ncc(C(=O)N(C)Cc4ccco4)cc3C2)nn2cnnc2c1C` [Compound 126, 6-(7,8-dimethyl-[1,2,4]triazolo[4,3-b]pyridazin-6-yl)-N-(2-furylmethyl)-N-methyl-7,8-dihydro-5H-1,6-naphthyridine-3-carboxamide], the Emax at 30 µM (CHO-K1) worked out at 55%.

Regarding `Cc1c(N2CCc3ncc(C(F)(F)F)cc3C2)nn2cnnc2c1C` [Compound 127, 6-(7,8-dimethyl-[1,2,4]triazolo[4,3-b]pyridazin-6-yl)-3-(trifluoromethyl)-7,8-dihydro-5H-1,6-naphthyridine], the EC50 was 151 nM. For the same molecule, the Emax at 30 µM (CHO-K1) is 107%.

As for `Cc1ccc2c(n1)CCN(c1nn3cnnc3c(C)c1C)C2` [Compound 128, 6-(7,8-dimethyl-[1,2,4]triazolo[4,3-b]pyridazin-6-yl)-2-methyl-7,8-dihydro-5H-1,6-naphthyridine], the EC50 came to 380 nM. Also, the Emax (CHO-K1) turned out to be 103%.

With `CCn1ccc(-c2cnc3c(c2)CN(c2nn4cnnc4c(C)c2C)CC3)n1` [Compound 129, 6-(7,8-dimethyl-[1,2,4]triazolo[4,3-b]pyridazin-6-yl)-3-(1-ethylpyrazol-3-yl)-7,8-dihydro-5H-1,6-naphthyridine], the EC50 was 210 nM. The Emax at 30 µM (CHO-K1) turned out to be 99%.

On to `CCn1ccc(-c2cnc3c(c2)CN(c2nn4cnnc4cc2C)CC3)n1` [Compound 130, 3-(1-ethylpyrazol-3-yl)-6-(7-methyl-[1,2,4]triazolo[4,3-b]pyridazin-6-yl)-7,8-dihydro-5H-1,6-naphthyridine], for which the Emax at 30 µM (CHO-K1) was determined as 93%.

`CCn1ccc(-c2cnc3c(c2)CN(c2nn4ccnc4cc2C)CC3)n1` [Compound 131, 3-(1-ethylpyrazol-3-yl)-6-(7-methylimidazo[1,2-b]pyridazin-6-yl)-7,8-dihydro-5H-1,6-naphthyridine]: the EC50 stood at 921 nM. In addition, where the note is “CHO-K1”, the Emax at 30 µM came to 81%.

On to `Cc1c(N2CCc3ncc(-c4cc(-c5ccccc5)no4)cc3C2)nn2cnnc2c1C` [Compound 132, 5-[6-(7,8-dimethyl-[1,2,4]triazolo[4,3-b]pyridazin-6-yl)-7,8-dihydro-5H-1,6-naphthyridin-3-yl]-3-phenyl-isoxazole], for which the EC50 was found to be 1950 nM. Further, the Emax at 30 µM (CHO-K1) is 81%.

Regarding `Cc1cc2nncn2nc1N1CCc2ncc(-c3cc(-c4ccccc4)no3)cc2C1` [Compound 133, 5-[6-(7-methyl-[1,2,4]triazolo[4,3-b]pyridazin-6-yl)-7,8-dihydro-5H-1,6-naphthyridin-3-yl]-3-phenyl-isoxazole], the EC50 amounted to 1340 nM. The Emax at 30 µM (CHO-K1) was found to be 68%.

On to `Cc1cnn(C)c1-c1cnc2c(c1)CN(c1nn3cnnc3c(C)c1C)CC2` [Compound 134, 3-(2,4-dimethylpyrazol-3-yl)-6-(7,8-dimethyl-[1,2,4]triazolo[4,3-b]pyridazin-6-yl)-7,8-dihydro-5H-1,6-naphthyridine], for which the EC50 worked out at 299 nM. The Emax at 30 µM (CHO-K1) came to 88%.

For `Cc1cc2nncn2nc1N1CCc2ncc(-c3c(C)cnn3C)cc2C1` [Compound 135, 3-(2,4-dimethylpyrazol-3-yl)-6-(7-methyl-[1,2,4]triazolo[4,3-b]pyridazin-6-yl)-7,8-dihydro-5H-1,6-naphthyridine], the EC50 was found to be 772 nM. Further, where the note is “CHO-K1”, the Emax at 30 µM was found to be 81%.

With `Cc1cc2nccn2nc1N1CCc2ncc(-c3c(C)cnn3C)cc2C1` [Compound 136, 3-(2,4-dimethylpyrazol-3-yl)-6-(7-methylimidazo[1,2-b]pyridazin-6-yl)-7,8-dihydro-5H-1,6-naphthyridine], the EC50 turned out to be 1200 nM. Besides, for the setting “CHO-K1”, the Emax at 30 µM came out at 66%.

Consider `Cc1c(N2CCc3ncc(-c4ccnn4C)cc3C2)nn2cnnc2c1C` [Compound 137, 6-(7,8-dimethyl-[1,2,4]triazolo[4,3-b]pyridazin-6-yl)-3-(2-methylpyrazol-3-yl)-7,8-dihydro-5H-1,6-naphthyridine], for which the EC50 came to 295 nM. Also, for the setting “CHO-K1”, the Emax at 30 µM was 99%.

Turning to `Cc1cc2nncn2nc1N1CCc2ncc(-c3ccnn3C)cc2C1` [Compound 138, 3-(2-methylpyrazol-3-yl)-6-(7-methyl-[1,2,4]triazolo[4,3-b]pyridazin-6-yl)-7,8-dihydro-5H-1,6-naphthyridine], the EC50 is 574 nM. Also, the Emax at 30 µM (CHO-K1) came out at 105%.

With `Cc1cc2nccn2nc1N1CCc2ncc(-c3ccnn3C)cc2C1` [Compound 139, 6-(7-methylimidazo[1,2-b]pyridazin-6-yl)-3-(2-methylpyrazol-3-yl)-7,8-dihydro-5H-1,6-naphthyridine], the EC50 was 433 nM. For the same molecule, the Emax at 30 µM (CHO-K1) was 83%.

Consider `Cc1cc2nncn2nc1N1CCc2ncc(-c3cnn(C)c3)cc2C1` [Compound 140, 3-(1-methylpyrazol-4-yl)-6-(7-methyl-[1,2,4]triazolo[4,3-b]pyridazin-6-yl)-7,8-dihydro-5H-1,6-naphthyridine], for which the EC50 worked out at 373 nM. Besides, the Emax at 30 µM (CHO-K1) was found to be 100%.

For the origin of these results see patent US20250002507A1, “7,8-DIHYDRO-5H-1,6-NAPHTHYRIDINE DERIVATIVES AS POSITIVE ALLOSTERIC MODULATORS OF THE MUSCARINIC ACETYLCHOLINE RECEPTOR M4 FOR TREATING NEUROLOGICAL AND PSYCHIATRIC DISORDERS” (Vanderbilt University, priority 2021, published 2025).
